According to ChEMBL document CHEMBL4177696, “Identification of a diverse synthetic abietane diterpenoid library and insight into the structure-activity relationships for antibacterial activity” (Bioorg Med Chem Lett, 2017):
Values after ≈ are worked out from the molar mass of the structure shown.

Legend:
Type in all cases: functional
Bacillus subtilis = assay: Antibacterial activity against Bacillus subtilis measured after 24 hrs
Pseudomonas fluorescens = assay: Antibacterial activity against Pseudomonas fluorescens measured after 24 hrs
Escherichia coli = assay: Antibacterial activity against Escherichia coli measured after 24 hrs
Staphylococcus aureus = assay: Antibacterial activity against Staphylococcus aureus measured after 24 hrs

| MIC (Bacillus subtilis) [µg/mL] | MIC (Pseudomonas fluorescens) [µg/mL] | MIC (Escherichia coli) [µg/mL] | MIC (Staphylococcus aureus) [µg/mL] | Compound |
| --- | --- | --- | --- | --- |
| 12.5 (≈ 41.9 µM) | 25 (≈ 83.8 µM) | 6.3 (≈ 21.1 µM) | 25 (≈ 83.8 µM) | C=C1C(=O)CC[C@]2(C)c3ccc(C(C)C)c(OC)c3CC[C@@H]12 |
| 50 (≈ 151 µM) | 25 (≈ 75.7 µM) | 25 (≈ 75.7 µM) | 25 (≈ 75.7 µM) | CC(C)(C)C(=O)OC[C@H]1[C@H](O)CC[C@]2(C)c3ccccc3CC[C@@H]12 |
| 50 (≈ 94.6 µM) | 50 (≈ 94.6 µM) | 75 (≈ 142 µM) | 50 (≈ 94.6 µM) | COC(=O)[C@]1(C)CCC[C@]2(C)c3ccc(C(C)C)c(NC(=O)Cn4cc(Cc5ccccc5)nn4)c3CC[C@@H]12 |
| 50 (≈ 91.8 µM) | 25 (≈ 45.9 µM) | 12.5 (≈ 22.9 µM) | 6.3 (≈ 11.6 µM) | COC(=O)[C@]1(C)CCC[C@]2(C)c3ccc(C(C)C)c(NC(=O)Cn4cc(-c5ccc(OC)cc5)nn4)c3CC[C@@H]12 |
| 75 (≈ 157 µM) | 75 (≈ 157 µM) | 6.3 (≈ 13.2 µM) | 50 (≈ 104 µM) | COC(=O)[C@]1(C)CCC[C@]2(C)c3ccc(C(C)C)c(NC(=O)Cn4cc(C5CC5)nn4)c3CC[C@@H]12 |
| 50 (≈ 91.8 µM) | 25 (≈ 45.9 µM) | 75 (≈ 138 µM) | 75 (≈ 138 µM) | COC(=O)[C@]1(C)CCC[C@]2(C)c3ccc(C(C)C)c(NC(=O)Cn4cc(-c5ccccc5OC)nn4)c3CC[C@@H]12 |
| 75 (≈ 135 µM) | 50 (≈ 90.1 µM) | 25 (≈ 45.1 µM) | 25 (≈ 45.1 µM) | COC(=O)c1nnn(CC(=O)Nc2c(C(C)C)ccc3c2CC[C@H]2[C@](C)(C(=O)OC)CCC[C@]32C)c1C(=O)OC |
| 6.3 (≈ 11.8 µM) | 12.5 (≈ 23.5 µM) | 25 (≈ 46.9 µM) | 12.5 (≈ 23.5 µM) | COC(=O)[C@]1(C)CCC[C@]2(C)c3ccc(C(C)C)c(NC(=O)Cn4cc(-c5cccc(F)c5)nn4)c3CC[C@@H]12 |
| 75 (≈ 138 µM) | 50 (≈ 91.8 µM) | 75 (≈ 138 µM) | 50 (≈ 91.8 µM) | COC(=O)[C@]1(C)CCC[C@]2(C)c3ccc(C(C)C)c(NC(=O)Cn4cc(-c5cccc(OC)c5)nn4)c3CC[C@@H]12 |
| 25 (≈ 48.6 µM) | 50 (≈ 97.1 µM) | 25 (≈ 48.6 µM) | 50 (≈ 97.1 µM) | COC(=O)[C@]1(C)CCC[C@]2(C)c3ccc(C(C)C)c(NC(=O)Cn4cc(-c5ccccc5)nn4)c3CC[C@@H]12 |
| 25 (≈ 46.9 µM) | 50 (≈ 93.9 µM) | 50 (≈ 93.9 µM) | 50 (≈ 93.9 µM) | COC(=O)[C@]1(C)CCC[C@]2(C)c3ccc(C(C)C)c(NC(=O)Cn4cc(-c5ccc(F)cc5)nn4)c3CC[C@@H]12 |
| 50 (≈ 94.1 µM) | 25 (≈ 47 µM) | 75 (≈ 141 µM) | 50 (≈ 94.1 µM) | COC(=O)[C@]1(C)CCC[C@]2(C)c3ccc(C(C)C)c(NC(=O)Cn4cc(CBr)nn4)c3CC[C@@H]12 |
| 50 (≈ 93.9 µM) | 12.5 (≈ 23.5 µM) | 25 (≈ 46.9 µM) | 25 (≈ 46.9 µM) | COC(=O)[C@]1(C)CCC[C@]2(C)c3ccc(C(C)C)c(NC(=O)Cn4cc(-c5ccccc5F)nn4)c3CC[C@@H]12 |
| 100 (≈ 196 µM) | 100 (≈ 196 µM) | 75 (≈ 147 µM) | 75 (≈ 147 µM) | COC(=O)[C@]1(C)CCC[C@]2(C)c3ccc(C(C)C)c(NC(=O)Cn4cc([Si](C)(C)C)nn4)c3CC[C@@H]12 |
| 100 (≈ 250 µM) | 100 (≈ 250 µM) | 100 (≈ 250 µM) | 100 (≈ 250 µM) | CCOCOC[C@]12CCC3=C(COC3=O)[C@@H]1CCc1c2ccc(C(C)C)c1OC |
| 25 (≈ 75.7 µM) | 25 (≈ 75.7 µM) | 50 (≈ 151 µM) | 50 (≈ 151 µM) | C=C1[C@@H]2CCc3c(ccc(C(C)C)c3OC)[C@@]2(C)CC[C@@]1(O)CO |
| 100 (≈ 290 µM) | 100 (≈ 290 µM) | 50 (≈ 145 µM) | 100 (≈ 290 µM) | COc1c(C(C)C)ccc2c1CC[C@H]1[C@@H]3COC(=O)[C@]3(O)CC[C@]21C |
| 75 (≈ 153 µM) | 50 (≈ 102 µM) | 50 (≈ 102 µM) | 50 (≈ 102 µM) | COC(=O)[C@]1(C)CCC[C@]2(C)c3ccc(C(C)C)c(NC(=O)Cn4cc(CCC#N)nn4)c3CC[C@@H]12 |
| 50 (≈ 101 µM) | 50 (≈ 101 µM) | 75 (≈ 151 µM) | 75 (≈ 151 µM) | COC(=O)c1cn(CC(=O)Nc2c(C(C)C)ccc3c2CC[C@H]2[C@](C)(C(=O)OC)CCC[C@]32C)nn1 |
| 100 (≈ 290 µM) | 100 (≈ 290 µM) | 100 (≈ 290 µM) | 75 (≈ 218 µM) | COc1c(C(C)C)ccc2c1CC[C@H]1[C@H]3COC(=O)[C@@]3(O)CC[C@]21C |
| 12.5 (≈ 22.9 µM) | 75 (≈ 138 µM) | 25 (≈ 45.9 µM) | 50 (≈ 91.8 µM) | COC(=O)[C@]1(C)CCC[C@]2(C)c3ccc(C(C)C)c(NC(=O)Cn4cc(COc5ccccc5)nn4)c3CC[C@@H]12 |
| 50 (≈ 88.1 µM) | 25 (≈ 44 µM) | 100 (≈ 176 µM) | 75 (≈ 132 µM) | COC(=O)[C@]1(C)CCC[C@]2(C)c3ccc(C(C)C)c(NC(=O)Cn4cc(CNC(=O)OC(C)(C)C)nn4)c3CC[C@@H]12 |
| 75 (≈ 138 µM) | 75 (≈ 138 µM) | 50 (≈ 91.8 µM) | 25 (≈ 45.9 µM) | COC(=O)[C@]1(C)CCC[C@]2(C)c3ccc(C(C)C)c(NC(=O)Cn4cc(C(O)c5ccccc5)nn4)c3CC[C@@H]12 (some centres undefined) |
| 100 (≈ 320 µM) | 75 (≈ 240 µM) | 100 (≈ 320 µM) | 75 (≈ 240 µM) | C=C1C(CO)=CC[C@]2(C)c3ccc(C(C)C)c(OC)c3CC[C@@H]12 |
| 12.5 (≈ 30.7 µM) | 6.3 (≈ 15.5 µM) | 3.1 (≈ 7.62 µM) | 25 (≈ 61.5 µM) | COc1c(C(C)C)ccc2c1CC[C@H]1C(=O)C(=C(SC)SC)CC[C@]21CO |
| 50 (≈ 104 µM) | 75 (≈ 155 µM) | 25 (≈ 51.8 µM) | 25 (≈ 51.8 µM) | COC(=O)[C@]1(C)CCC[C@]2(C)c3ccc(C(C)C)c(NC(=O)Cn4cc(CCO)nn4)c3CC[C@@H]12 |
